Source: patent US8129184B2, “Cancer stem cell antigen vaccines and methods” (Cedars-Sinai Medical Center, priority 2006, dated 2012)
“Also recorded” adds a separate entry of the source.

Assays:
[1] = test system: CD133 positive cells isolated from No. 66; assay: WST-1 Cell Proliferation Assay, drug sensitivity of CD133 positive vs CD133 negative cells, No. 66; format: cell-based, human; settings: No. 66, 48 hours, 10% FBS/F-12/DMEM
Procedure: FIGS. 10A-10D are line graphs depicting drug sensitivity of CD133 positive cancer stem cells derived from patient No. 66. Tumor cells of No. 66 were cultured in FBS/F-12/DMEM medium for 4 passages. Both CD133 positive and negative tumor cells were collected by FACS sorting. 1×10^4 cells/well were plated in 96-well plate and treated with the indicated concentrations of VP-16, Taxol, temozolomide, and carboplatin for 48 hours in FBS/F-12/DMEM medium. * indicates p<0.05 compared to autologous CD133 negative cells. Data are representative of two independent experiments. (10A) VP16; (10B) Taxol; (10C) temozolomide; (10D) carboplatin.
(§1) To determine whether CD133 positive cancer stem cells were resistant to chemotherapeutic agents, the WST-1 Cell Proliferation Assay was used to examine the drug sensitivity of CD133 positive cells and CD133 negative cells (both collected by FACS sorting from the three glioblastoma patients' primary cultured tumor cells as described above). CD133 positive and negative cells were exposed to conventional chemotherapeutic agents, temozolomide, carboplatin, VP-16 or taxol at various concentrations, for up to 48 hours in 10% FBS/F-12/DMEM culture medium. Temozolomide was supplied by the Schering-Plough Research Institute (Kenilworth, N.J.) and was dissolved in DMSO (Sigma Chemical Co., St Louis, Mo.) at 100 mM stock solution. Carboplatin, etoposide (VP-16) and paclitaxel (Taxol) were obtained from Sigma-Aldrich (St. Louis, Mo.).

[2] = test system: CD133 positive cells isolated from No. 377; assay: WST-1 Cell Proliferation Assay, drug sensitivity of CD133 positive vs CD133 negative cells, No. 377; format: cell-based, human; settings: 48 hours
Procedure: (§2) FIGS. 11A-11C are a set of line graphs depicting drug sensitivity of CD133 positive cancer stem cells derived from patient Nos. 377 and 1049. Tumor cells of patient No. 377 and No. 1049 were cultured in FBS/F-12/DMEM medium for 3 passages. Both CD133 positive and negative tumor cells were collected by FACS sorting. 1×10^4 cells/well were plated in 96-well plate and treated with the indicated concentrations of carboplatin (11A and 11C) or VP-16 (11B) for 48 hours in FBS/F-12/DMAEM medium. * indicates p<0.05 compared to autologous CD133 negative cells. Data are representative of two independent experiments.
as §1, with “Carboplatin, etoposide (VP-16) and paclitaxel (Taxol) were obtained from Sigma-Aldrich (St. Louis, Mo.).” left out

[3] = test system: 9L sphere and monolayer cells; assay: WST-1 viability of 9L neurospheres and monolayer cells exposed to chemotherapeutic agents; format: cell-based, rat; settings: 125-1,000 μM, 2 days
Procedure: To compare the differential proliferation rates and resistance to chemotherapeutic agents, 2,000 healthy 9L sphere and monolayer cells were exposed to either Dulbecco's modified Eagle's medium/F-12 medium containing 10% fetal bovine serum (FBS), or […] stock solution of Temozolamide or Carboplatin dissolved in PBS at concentrations of 1,000 μM, 500 μM, 250 μM, and 125 μM for 2 days. The viability of the cells was scored by measurement of the absorption of formazan dye (the amount of formazan dye formed directly correlates to the number of metabolically active cells) using the cellular proliferation assay WST-1 (Roche Molecular Biochemicals, Mannheim, Germany). Formazan was measured with the use of a microplate reader (Tecan) and spectrophotometer set at a wavelength of 440 nm and a reference wavelength of 890 nm. Cellular viability was determined by exposing cells to WST-1 for 4 hours, and calculating the percentage of viable cells. Proliferation was also assessed by using manual cell counting after 7 days in culture, with an initial cellular concentration of 100,000 cells/mL in a […] flask.

[4] = test system: CD133 positive cells isolated from No. 1049; assay: WST-1 Cell Proliferation Assay, drug sensitivity of CD133 positive vs CD133 negative cells, No. 1049; format: cell-based, human; settings: No. 1049, at 200 μM, 48 hours
Procedure: as §2
as §1, with “Carboplatin, etoposide (VP-16) and paclitaxel (Taxol) were obtained from Sigma-Aldrich (St. Louis, Mo.).” left out

| SMILES | drug resistance of CD133 positive cells compared to autologous CD133 negative cells [1] | resistance of CD133 positive cells compared to autologous CD133 negative cells ([2]; No. 377, at 200 μM) | resistance of neurospheres to the agent compared to monolayer cells [3] | resistance of CD133 positive cells compared to autologous CD133 negative cells [4] | resistance of CD133 positive cells compared to autologous CD133 negative cells ([2]; No. 377, all concentrations tested) |
| --- | --- | --- | --- | --- | --- |
| CC(=O)O[C@H]1C(=O)[C@@]2(C)[C@H]([C@H](OC(=O)c3ccccc3)[C@]3(O)C[C@H](OC(=O)[C@H](O)[C@@H](NC(=O)c4ccccc4)c4ccccc4)C(C)=C1C3(C)C)[C@]1(OC(C)=O)CO[C@@H]1C[C@@H]2O [Taxol, paclitaxel] | dramatic drug resistance | – | – | – | – |
| COc1cc([C@@H]2c3cc4c(cc3[C@@H](O[C@@H]3O[C@@H]5CO[C@@H](C)O[C@H]5[C@H](O)[C@H]3O)[C@H]3COC(=O)[C@H]23)OCO4)cc(OC)c1O [VP-16, etoposide] | dramatic drug resistance | significant resistance | – | – | – |
| N.N.O=C([O-])C1(C(=O)[O-])CCC1.[Pt+2] [carboplatin] | dramatic drug resistance | – | significantly (P<0.05) greater resistance; also recorded: significantly more resistant | significant resistance | significant resistance |
